“Also recorded” adds a separate entry of the source.
Columns and labels:
[1] = system: Blatta lateralis; test: Contact test on non-porous tile, Blatta lateralis; assay type: in vivo; conditions: Blatta lateralis; synergist applied with Imidacloprid
Experimental: 1 ml of Composition 24 was distributed on the tile. […] 1 ml of Composition 20c was distributed on a tile. […] 1 ml of Composition 20d was distributed on a tile.
1 ml of Composition 24 was distributed on the tile. […] 1 ml of Composition 28 was distributed on a tile. […] Each experiment (A-B) was conducted in duplicate.
1 ml of Composition 24 was distributed on the tile. […] 1 ml of Composition 21 was distributed on a tile.
1 ml of Composition 4b was distributed on the tile. […] 1 ml of Composition 31c was distributed on a tile. […] 1 ml of Composition 31d was distributed on a tile. […] 1 ml of Composition 31d was distributed on a tile.
1 ml of Composition 24 was distributed on the tile. […] 1 ml of Composition 35 was distributed on a tile. […] 1 ml of Composition 40b was distributed on a tile. […] 1 ml of Composition 42 was distributed on a tile.

[2] = system: Musca domestica L.; test: Contact test on non-porous tile, Musca domestica; assay type: in vivo; conditions: for synergizing effect on Azamethiphos / synergizing effect on Cypermethrin / synergizing effect on Spinosad: Musca domestica L.; for synergizing effect on Azamethiphos: synergist applied with Azamethiphos; for synergizing effect on Cypermethrin: synergist applied with Cypermethrin; for synergizing effect on Spinosad: synergist applied with Spinosad; for mortality at 680 µg/mL: 0.68 mg/ml
[3] = Musca domestica, single substance alone, 48 h, read-out: Mortality %/time (h)

CCCCCCCC/C=C\CCCCCCCCOC(C)=O [Oleyl acetate]
synergizing effect on Imidacloprid [1]: excellent synergizing effect
synergizing effect on Azamethiphos [2]: high synergizing effect
synergizing effect on Cypermethrin [2]: high synergizing effect
synergizing effect on Spinosad [2]: fine synergizing effect
mortality at 150 µg/mL ([2]; Musca domestica, single substance alone, 0.15 mg/ml, 48 h, read-out: Mortality %/time (h)): 0%
mortality at 510 µg/mL ([2]; Musca domestica, single substance alone, 0.51 mg/ml, 48 h, read-out: Mortality %/time (h)): 0%
mortality at 680 µg/mL [2, 3]: 60%
mortality at 1020 µg/mL ([2]; Musca domestica, single substance alone, 1.02 mg/ml, 48 h, read-out: Mortality %/time (h)): 0%
mortality at 33000 µg/mL ([2]; Musca domestica, single substance alone, 33.00 mg/ml, 48 h, read-out: Mortality %/time (h)): 18%

CCCCCCCCOC(=O)OCCCCCCCC [dioctyl carbonate]
synergizing effect on Imidacloprid [1]: good synergizing effect
synergizing effect on Azamethiphos [2]: excellent synergizing effect
synergizing effect on Cypermethrin [2]: high synergizing effect
synergizing effect on Spinosad [2]: fine synergizing effect
mortality at 680 µg/mL [2, 3]: 33%

Oleic alcohol [Oleic alcohol 95%]
synergizing effect on Imidacloprid [1]: same synergizing effect of PBO
synergizing effect on Azamethiphos [2]: high synergizing effect
synergizing effect on Cypermethrin [2]: synergistic effect, comparable to the activity shown by PBO; also recorded: good synergizing effect
Mortality %/time (h) ([2]; single substance alone, 0.15 mg/ml, 48 h): 1/48 ^ %
Mortality %/time (h) ([2]; single substance alone, 0.51 mg/ml, 48 h): 5/48 ^ %
Mortality %/time (h) ([2]; single substance alone, 0.88 mg/ml, 48 h): 8/48 ^ %
Mortality %/time (h) ([2]; single substance alone, 28.53 mg/ml, 48 h): 18/48 ^ %
